In article PMC4676711 (ACS chemical neuroscience, 2015):

Experiment: plasma stability
Type: in vitro ADME
Conditions: mouse, plasma (K2 EDTA)

**Q.** For `CC1CC(OC(=O)C(O)c2ccccc2)CC(C)(C)N1C` (stereo not shown) [Eucatropine], which remaining at 0.5 h, 1 μM is on record?
**A.** 43.2%
